These are literature values, as cited in patent publication US20100104547A1, “TOPICAL COMPOSITION FOR THE TREATMENT OF ALLERGENIC EFFECTS” (priority 2005, published 2010).

For data set [1] the following is noted: topical application.
The conditions of data set [2]: mice, bee venom intradermal; test substance by intradermal injection or topical application.

For pancreatin, the “reducing the itch associated with mosquito and black fly bites” value (from here on “reducing the itch associated”) in data set [1] was “effective”.

As for subtilisin, in data set [1], the “reducing the itch associated” value is “effective”.

B1: papain (protein, UniProt P00784 134-345, looked up)
Papain: IPEYVDWRQKGAVTPVKNQGSCGSCWAFSAVVTIEGIIKIRTGNLNEYSEQELLDCDRRSYGCNGGYPWSALQLVAQYGIHYRNTYPYEGVQRYCRSREKGPYAAKTDGVRQVQPYNEGALLYSIANQPVSVVLEAAGKDFQLYRGGIFVGPCGNKVDHAVAAVGYGPNYILIKNSWGTGWGENGYIRIKRGTGNSYGVCGLYTSSFYPVKN
notes: proteolytic enzyme, commonly in the form of meat tenderizer
Consider B1, for which the “inhibition of lesion development” value in data set [2] is “no marked inhibition”. Further, the “reducing the itch associated” value in data set [1] is listed as “effective”.
